Measurements taken from the supplement of paper PMC10949913.

How the values were obtained:
Assay in all cases: area under concentration-response curve (viability) (AUC (a.u.)); higher = less active
Conditions in all cases: 48 h
CU-ACC2 = test system: CU-ACC2
Summary of the method: (§1)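 Luminescence from CellTiter-Glo, read after 48 h, measured three adrenocortical carcinoma cell lines treated in 1,536-well plates with library compounds at 11 concentrations. Values were normalised per plate to vehicle and empty-well controls. The AC50 and area under the curve come from fitted concentration-response curves in inhibitory or non-responding classes only.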

NCI-H295R = test system: NCI-H295R
Summary of the method: as §1

CU-ACC1 = test system: CU-ACC1
Summary of the method: as §1

O=C(C[C@@H]1C/C=C\CCC(=O)O[C@H](c2ccccc2)CNC1=O)NCc1ccc(Cl)cc1
area under concentration-response curve (CU-ACC2): 620 | area under concentration-response curve (NCI-H295R): 569 | area under concentration-response curve (CU-ACC1): 526

CC(=O)O[C@H]1C[C@@H]2CC[C@@H]3[C@H](CC[C@@]4(C)[C@H]3C[C@H]([N+]3(C)CCCCC3)[C@@H]4OC(C)=O)[C@@]2(C)C[C@@H]1[N+]1(C)CCCCC1
area under concentration-response curve (CU-ACC2): 584 | area under concentration-response curve (NCI-H295R): 505 | area under concentration-response curve (CU-ACC1): 501

CCC(C)(Oc1ccc(C2(c3ccc(OC(C)(CC)C(=O)O)cc3)CCCCC2)cc1)C(=O)O (configuration not stated)
area under concentration-response curve (CU-ACC2): 572 | area under concentration-response curve (NCI-H295R): 470 | area under concentration-response curve (CU-ACC1): 500

Cn1c(/C=C/CO)c(CO)c2c1C(=O)C=C(N1CC1)C2=O
area under concentration-response curve (CU-ACC2): 580 | area under concentration-response curve (NCI-H295R): 514 | area under concentration-response curve (CU-ACC1): 461

[NH2][Pt]([NH2])([Cl])[Cl]
area under concentration-response curve (CU-ACC2): 576 | area under concentration-response curve (NCI-H295R): 514 | area under concentration-response curve (CU-ACC1): 528

Cc1cc(C)c2c(c1)[C@@H](N(Cc1cc(C(F)(F)F)cc(C(F)(F)F)c1)c1nnn(C)n1)CCCN2C[C@H]1CC[C@H](C(=O)O)CC1
area under concentration-response curve (CU-ACC2): 582 | area under concentration-response curve (NCI-H295R): 529 | area under concentration-response curve (CU-ACC1): 489

FC(F)(F)c1ccc(/C=C/c2nc(COc3ccc(CCCCn4ccnn4)cc3)co2)cc1
area under concentration-response curve (CU-ACC2): 596 | area under concentration-response curve (NCI-H295R): 531 | area under concentration-response curve (CU-ACC1): 265

ClC1=CC=C2OC3=C(\N=C(NC3=O)\[C@@H]4CCCN4)C2=C1
area under concentration-response curve (CU-ACC2): 601 | area under concentration-response curve (NCI-H295R): 534 | area under concentration-response curve (CU-ACC1): 410

CC(=O)N1CCN(c2ccc(NC(=O)Cc3cnc(-c4ccnc(F)c4)c(C)c3)nc2)CC1
area under concentration-response curve (CU-ACC2): 643 | area under concentration-response curve (NCI-H295R): 582 | area under concentration-response curve (CU-ACC1): 550

COC(=O)CCC1=C(C)C2=CC3=NC(=CC4=C(C)C(=C([NH]4)C=C\5N=C(C=C1[NH]2)\C(=C5C)CCC(O)=O)C=C)\C6=C\C=C(/[C@@H](C(=O)OC)[C@@]36C)C(=O)OC
area under concentration-response curve (CU-ACC2): 416 | area under concentration-response curve (NCI-H295R): 462 | area under concentration-response curve (CU-ACC1): 438

COc1cc(SC)ccc1C(=O)N1CCC(Cc2ccccc2)CC1
area under concentration-response curve (CU-ACC2): 501 | area under concentration-response curve (NCI-H295R): 538 | area under concentration-response curve (CU-ACC1): 522

C[C@H](NC(=O)Cc1cc(F)cc(F)c1)C(=O)N[C@H](C(=O)OC(C)(C)C)c1ccccc1
area under concentration-response curve (CU-ACC2): 677 | area under concentration-response curve (NCI-H295R): 572 | area under concentration-response curve (CU-ACC1): 570

COc1nc(C)nc(Cl)c1NC1=NCCN1
area under concentration-response curve (CU-ACC2): 436 | area under concentration-response curve (NCI-H295R): 504 | area under concentration-response curve (CU-ACC1): 468

N[C@@H](Cc1ccc(O)c(O)c1)C(=O)O
area under concentration-response curve (CU-ACC2): 612 | area under concentration-response curve (NCI-H295R): 534 | area under concentration-response curve (CU-ACC1): 503

CC[C@H](NC(=O)[C@H](C[S+](=O)([O-])CC1CC1)N[C@@H](c1ccc(F)cc1)C(F)(F)F)C(=O)C(=O)NC1CC1
area under concentration-response curve (CU-ACC2): 510 | area under concentration-response curve (NCI-H295R): 538 | area under concentration-response curve (CU-ACC1): 534

O=C(O)CC(C(=O)O)N1C(=O)/C(=C2/C(=O)Nc3ccc(Br)cc32)SC1=S (configuration not stated)
area under concentration-response curve (CU-ACC2): 593 | area under concentration-response curve (NCI-H295R): 567 | area under concentration-response curve (CU-ACC1): 569

CCCCCCCCCCCC(CC1OC(=O)C1CCCCCC)OC(=O)C(CC(C)C)NC=O (configuration not stated)
area under concentration-response curve (CU-ACC2): 517 | area under concentration-response curve (NCI-H295R): 336 | area under concentration-response curve (CU-ACC1): 474

CC(C)(C#N)c1cc(Cn2cncn2)cc(C(C)(C)C#N)c1
area under concentration-response curve (CU-ACC2): 574 | area under concentration-response curve (NCI-H295R): 537 | area under concentration-response curve (CU-ACC1): 461

O=C(c1c(F)ccc(N[S+](=O)([O-])N2CC[C@@H](F)C2)c1F)c1c[nH]c2ncc(-c3cnc(C4CC4)nc3)cc12
area under concentration-response curve (CU-ACC2): 574 | area under concentration-response curve (NCI-H295R): 474 | area under concentration-response curve (CU-ACC1): 470

C[C@@H]1[C@H](O)[C@@H](C)/C=C/C=C/C=C/C=C/C=C/C=C/C=C/[C@H](O[C@@H]2O[C@H](C)[C@@H](O)[C@H](N)[C@@H]2O)C[C@@H]2O[C@](O)(C[C@@H](O)C[C@@H](O)[C@H](O)CC[C@@H](O)C[C@@H](O)CC(=O)O[C@H]1C)C[C@H](O)[C@H]2C(=O)O
area under concentration-response curve (CU-ACC2): 633 | area under concentration-response curve (NCI-H295R): 595 | area under concentration-response curve (CU-ACC1): 550

N#CN1CCC[C@@H](n2nc(-c3ccc(Oc4ccc(F)cc4F)cc3)c(C(N)=O)c2N)C1
area under concentration-response curve (CU-ACC2): 607 | area under concentration-response curve (NCI-H295R): 553 | area under concentration-response curve (CU-ACC1): 487

NCC1(CC(=O)O)CCCCC1
area under concentration-response curve (CU-ACC2): 403 | area under concentration-response curve (NCI-H295R): 412 | area under concentration-response curve (CU-ACC1): 315

CC(C)=CCC/C(C)=C/CC/C(C)=C/CSc1ccccc1C(=O)O
area under concentration-response curve (CU-ACC2): 598 | area under concentration-response curve (NCI-H295R): 540 | area under concentration-response curve (CU-ACC1): 527

CCCCNc1cc(C(=O)O)cc([S+](N)(=O)[O-])c1Oc1ccccc1
area under concentration-response curve (CU-ACC2): 596 | area under concentration-response curve (NCI-H295R): 553 | area under concentration-response curve (CU-ACC1): 505

O=C1NC(=O)/C(=C/c2ccc3c(c2)OC(F)(F)O3)S1
area under concentration-response curve (CU-ACC2): 599 | area under concentration-response curve (NCI-H295R): 537 | area under concentration-response curve (CU-ACC1): 512

N[S+]([O-])(=O)C1=C(Cl)C=C2\N=C/N[S+]([O-])(=O)C2=C1
area under concentration-response curve (CU-ACC2): 646 | area under concentration-response curve (NCI-H295R): 576 | area under concentration-response curve (CU-ACC1): 548

OC[C@H]1OC(O)C[C@@H](O)[C@@H]1O (some centres not stated)
area under concentration-response curve (CU-ACC2): 694 | area under concentration-response curve (NCI-H295R): 607 | area under concentration-response curve (CU-ACC1): 562

O=C(NCc1ccncc1)C12C[C@H]3C[C@@H](C1)CC(c1ccc(Cl)cc1)(C3)C2
area under concentration-response curve (CU-ACC2): 576 | area under concentration-response curve (NCI-H295R): 468 | area under concentration-response curve (CU-ACC1): 486

C[C@]12CC[C@H]3[C@@H](CCC4=CC(=O)CC[C@@H]43)[C@@H]1CC[C@@H]2OC(=O)CCc1ccccc1
area under concentration-response curve (CU-ACC2): 534 | area under concentration-response curve (NCI-H295R): 498 | area under concentration-response curve (CU-ACC1): 461

C[C@@H]1C[C@H]2[C@@H]3CCC\4=C\C(=O)\C=C/[C@]4(C)[C@@]3(F)[C@@H](O)C[C@]2(C)[C@@]1(O)C(=O)CO
area under concentration-response curve (CU-ACC2): 588 | area under concentration-response curve (NCI-H295R): 481 | area under concentration-response curve (CU-ACC1): 515

CC(=O)N1c2ccc(-c3ccc(C(=O)O)cc3)cc2[C@H](Nc2ccc(Cl)cc2)C[C@@H]1C
area under concentration-response curve (CU-ACC2): 548 | area under concentration-response curve (NCI-H295R): 497 | area under concentration-response curve (CU-ACC1): 380

CCN1/C(=C/C(C)=O)Sc2ccc(OC)cc21
area under concentration-response curve (CU-ACC2): 569 | area under concentration-response curve (NCI-H295R): 515 | area under concentration-response curve (CU-ACC1): 467

Cc1nc(-c2ccc(OCC(C)C)c(C#N)c2)sc1C(=O)O
area under concentration-response curve (CU-ACC2): 544 | area under concentration-response curve (NCI-H295R): 306 | area under concentration-response curve (CU-ACC1): 478

OC[C@H]1O[C@H](C[C@@H]1O)N2\C=C(\I)C(=O)NC2=O
area under concentration-response curve (CU-ACC2): 543 | area under concentration-response curve (NCI-H295R): 501 | area under concentration-response curve (CU-ACC1): 496

C1Cc2[nH]nc(-c3nn[nH]n3)c2C1
area under concentration-response curve (CU-ACC2): 624 | area under concentration-response curve (NCI-H295R): 514 | area under concentration-response curve (CU-ACC1): 544

O[C@@H]1C\C(=C/C(O)C1O)C(O)=O (some centres not stated)
area under concentration-response curve (CU-ACC2): 614 | area under concentration-response curve (NCI-H295R): 581 | area under concentration-response curve (CU-ACC1): 512

CC1=CC=C2\N=C/3N(CC[C@@]3(O)C(=O)C2=C1)C4=CC=CC=C4
area under concentration-response curve (CU-ACC2): 616 | area under concentration-response curve (NCI-H295R): 552 | area under concentration-response curve (CU-ACC1): 537

CN(C)N(C)C(=O)[C@@]1(Cc2ccccc2)CCCN(C(=O)[C@@H](Cc2c[nH]c3ccccc23)NC(=O)C(C)(C)N)C1
area under concentration-response curve (CU-ACC2): 525 | area under concentration-response curve (NCI-H295R): 514 | area under concentration-response curve (CU-ACC1): 522

CC[C@@H](C(N)=O)N1CCCC1=O
area under concentration-response curve (CU-ACC2): 520 | area under concentration-response curve (NCI-H295R): 545 | area under concentration-response curve (CU-ACC1): 532
